# From patent publication US20100297265A1, “Optimal compositions and methods for treating oral disease and pain” (priority 2009, published 2010)
# Like-named read-outs stand apart in the source and are kept apart here.
# What was measured:
# [1] = system: Streptococcus mutans strain ATCC 25175; test: S. mutans growth in TS media with cesium/sodium salts (OD 600 nm, doubling time); type: cell-based; settings: for Minimum Inhibitory Concentration (MIC): Lineweaver-Burke plot of growth data; for colonies on TS-agar plate: 50 μL of 100 mM salt culture spread onto TS-agar plate; for inhibition of culture growth rates: nitrate salt, tested at 25-100 mM
# Protocol: (§1) Streptococcus mutans strain ATCC 25175 was obtained from American Type Culture Collection in the freeze-dried state. Cells were rehydrated in a trypticase soy-yeast extract media (30 g trypticase soy broth and 3 g yeast extract per liter mqH2O; TS media). The bacteria were grown overnight at 37° C., shaking at 60 rpm in 50 mL broth. For routine propagation of the strain, S. mutans was grown on trypticase soy agar plates, TS media with 15 g/L agar. Escherichia coli strain K12 was grown as a representative enteric bacteria in LB broth (10 g tryptone, 5 g yeast extract and 10 g NaCl per liter mqH2O).
# To assess the toxicity of cesium chloride, growth rates were calculated from cultures grown in the absence and presence of cesium chloride with sodium chloride added to controls to maintain consistent ionic strength. The first growth curves conducted used duplicate cultures of 50 mL TS media in 125 mL flasks with foam stoppers. The media was inoculated with 1 mL of the starter culture (2% inoculum) and the optical density was measured at 600 nm. Two conditions were initially tested: 100 mM CsCl and 100 mM NaCl.
# An increasing gradient of CsCl concentrations was examined to see how bacterial growth rate varies with salt concentration. Concentrations of 0 mM, 5 mM, 10 mM, 25 mM, 50 mM, 75 mM and 100 mM CsCl were tested; NaCl was used to counter balance control in order to maintain constant ion concentrations.
# Additional cesium salts were used to assess alternate inhibitors of S. mutans cultures. Cesium salts of hydroxide, formate, bicarbonate, sulfate, nitrate, fluoride, and iodide were obtained from Fisher Scientific. Growth rates of S. mutans were monitored with 0 mM, 25 mM, 50 mM, and 100 mM cesium salt in TS broth. Control cultures were grown with sodium hydroxide, bicarbonate, nitrate, and sulfate at 0 mM, 25 mM, 50 mM, and 100 mM.
# To investigate the inhibition of S. mutans by cesium chloride, growth in the presence and absence of CsCl was compared. Ions were balanced with NaCl in all cultures to a final concentration of 100 mM of supplemental cations added to the media (i.e., for 75 mM CsCl, 25 mM NaCl was added to bring the total concentration of supplemental cation to 100 mM). All data is presented in optical density absorbance measurements at 600 nm, or doubling times (the length of time it takes for a culture to double in time).
# S. mutans [2] = test: Spiking of exponentially growing S. mutans cultures; type: cell-based, Streptococcus mutans; settings: for doubling time: culture spiked with 100 mM salt in early exponential phase
# Protocol: To determine how CsCl affects exponentially growing S. mutans cells, cultures were spiked with CsCl. TS media was prepared as in previous experiments and cultures were started with 0.2% inoculum. The cultures were grown for three and a half hours while monitoring the growth with the OD at 600 nm. When the cultures were in early exponential growth phase, they were spiked with 100 mM CsCl, 100 mM NaCl, or Listerine mouthwash in a 1:10 or 1:100 dilution in TS media.
# S. mutans [3] = settings: previous study, cited from earlier work
# [4] = system: Escherichia coli strain K12; test: E. coli K12 growth in LB broth with CsCl; type: cell-based
# Protocol: as §1
# An increasing gradient of CsCl concentrations was examined to see how bacterial growth rate varies with salt concentration. Concentrations of 0 mM, 5 mM, 10 mM, 25 mM, 50 mM, 75 mM and 100 mM CsCl were tested; NaCl was used to counter balance control in order to maintain constant ion concentrations. Additional gradient growth curves with 0 mM, 20 mM, 30 mM, 40 mM and 50 mM CsCl were conducted to refine the inhibition profile of S. mutans.
# S. mutans [5] = test: S. mutans growth with CsCl under differing pH conditions; type: cell-based, Streptococcus mutans
# [6] = system: E. coli potassium channel mutants (Kch JW1242, TrkG JW1358, TrkH JW5576, KdpA JW0686); test: Growth of E. coli potassium channel mutants with CsCl; type: cell-based, Escherichia coli
# Protocol: In order to better understand the mechanism of inhibition, the following potassium channel mutants of E. coli from the Keio collection were obtained from the Coli Genetic Stock Center at Yale University: Kch mutant JW 1242-1, TrkG mutant JW 1358-1, TrkH mutant JW 5576-1, and KdpA mutant JW686-5. Mutant E. coli strains were grown in LB broth in the presence or absence of CsCl (either 0 mM, 50 mM, or 100 mM CsCl) to assess the role of potassium transport channels in cesium inhibition.
# It was hypothesized that, as a larger monovalent cation, cesium could block potassium channels, thereby blocking the uptake of potassium into the cell and retarding cell growth. Strains of E. coli with non-essential genes knocked out were acquired from the Yale Coli Genetic Stock Center. Four mutants were chosen: JW0686, a KdpA mutant, a cesium inducible potassium transporting ATPase; JW1242, a Kch mutant, a conductive potassium transporter; JW1358, a TrkG mutant, a transmembrane component of the Trk potassium uptake system; JW5576, a TrkH mutant, a transmembrane component of the Trk potassium uptake system. TrkG and TrkH determine the specificity of the Trk protein. Because of their similarity (i.e., 41% nucleotide homology), Trk can be made with either one of the two subunits if the other is not available, although TrkG is preferred.
# [7] = 0, 25, 50 and 100 mM cesium salt
compound,measurement,setting,value
O=S(=O)([O-])[O-].[Cs+].[Cs+] [Cesium sulfate],inhibition of S. mutans growth,[1]; concentrations of 50 mM or below,not inhibitory
cesium bicarbonate,inhibition of S. mutans growth,[1]; 50 mM,increased inhibition
same,inhibition of S. mutans growth,[1]; 100 mM,complete inhibition
same,Minimum Inhibitory Concentration (MIC),[1],40.5 mM
same,inhibition compared with sodium bicarbonate control,[1]; concentrations less than 45 mM,not significantly different
same,inhibition compared with sodium bicarbonate control,[1]; concentrations of 45 mM or greater,inhibited S. mutans growth more than the control cultures
same,MIC lower than the MIC for CsCl by,[1]; difference of MIC values,more than 20 mM
"[Cl-].[Na+] [NaCl, sodium chloride]",yield,S. mutans [2]; 100 mM spiked control,0.9 OD units
same,doubling time,S. mutans [2],1.21 h
same,doubling time,[1]; 100 mM NaCl (presented as 0 mM CsCl),roughly 1 hour
same,colonies on TS-agar plate,[1],small opaque white colonies overnight
"[Na+].[OH-] [NaOH, sodium hydroxide]",pH of the media,50 mM,9.5
same,pH of the media,100 mM,12.5
[Cs+].[OH-] [Cesium hydroxide],inhibition of S. mutans growth,"[1]; 50 mM or greater, due to increase in pH",inhibited cultures completely
same,pH of the media,50 mM,9.5
same,pH of the media,100 mM,12.5
O=[N+]([O-])[O-].[Na+] [sodium nitrate],inhibition of culture growth rates,[1],roughly 30%
O=C[O-].[Cs+] [Cesium formate],inhibition of S. mutans growth,[1]; [7],little to no inhibition
[Cs+].[I-] [Cesium iodide],inhibition of S. mutans growth,[1]; [7],little to no inhibition
O=[N+]([O-])[O-].[Cs+] [Cesium nitrate],inhibition of culture growth rates,[1],roughly 30%
O=C([O-])O.[Na+] [sodium bicarbonate],completely inhibitory concentration,S. mutans [3]; 8% w/v converted,~950 mM
same,completely inhibitory concentration,S. mutans [3],8 % w/v
"[Cl-].[Cs+] [CsCl, cesium chloride]",doubling time,[4]; all CsCl concentrations tested (0-100 mM),approximately 1 h
same,effect on growth rate,"[4]; concentrations as high as 100 mM CsCl, LB media",minimal effect
same,doubling time,"S. mutans [5]; 25 mM CsCl, pH 7.00",52 min
same,inhibition,"S. mutans [5]; 25 mM CsCl, pH 7.25",No inhibition
same,doubling time,"S. mutans [5]; 25 mM CsCl, pH 8.33",64 min
same,increase of doubling time,"S. mutans [5]; 25 mM CsCl, pH 8.33 vs pH 7.00",25%
same,inhibition relative to neutral pH,"S. mutans [5]; 100 mM, pH 8.33",more inhibitory
same,inhibition relative to neutral or basic pH,S. mutans [5]; pH 4.50,less inhibitory
same,inhibition relative to other pH tested,S. mutans [5]; pH 8.33,strongest inhibition
same,doubling time,S. mutans [2],2.49 h
same,maximum yield,"[1]; 0, 5, 10 and 25 mM CsCl cultures, OD 600 nm",0.9 OD units
same,doubling time,"[1]; 5 mM CsCl, NaCl added to 100 mM total supplemental cation",1.06 h
same,doubling time,"[1]; 10 mM CsCl, NaCl added to 100 mM total supplemental cation",0.94 h
same,doubling time,"[1]; 25 mM CsCl, NaCl added to 100 mM total supplemental cation",1.17 h
same,doubling time,"[1]; 50 mM CsCl, NaCl added to 100 mM total supplemental cation",1.54 h
same,doubling time,"[1]; 75 mM CsCl, NaCl added to 100 mM total supplemental cation",2.37 h
same,doubling time,[1]; 100 mM CsCl,4.17 h
same,growth of S. mutans,[1]; 100 mM CsCl culture,almost completely inhibited
same,colonies on TS-agar plate,[1],thin translucent colonies after a week
same,Minimum Inhibitory Concentration (MIC),[1],61.2 mM
same,inhibition of mutants,"[6]; 0, 50 or 100 mM CsCl in LB broth",some inhibition
same,reduction in growth rate,"[6]; 100 mM CsCl vs control with 100 mM NaCl, most inhibited cultures",roughly one third
[Cs+].[F-] [Cesium fluoride],inhibition of S. mutans growth,[1]; [7],little to no inhibition
